Measurements as given in PubChem BioAssay AID1918933 (Molecular Pharmacology Branch, DTP, NCI, 2023).
pIC50: −log10 of the molar value. Several values for one entry are separate records, joined by “and”; a condition that tells them apart may be missing. Equal entries are not always repeated.

Test system: 186277-243-T-J2-PDC complex spheroid viability
Assay: Anticancer human tumor 186277-243-T-J2-PDC patient-derived colon adenocarcinoma cell line growth inhibition
Settings: for viability, T/C: stronger effect = lower value
From the text: Multicellular complex tumor spheroid response to LSD1 Inhibitor Iadademstat in combination with a variety of drugs and investigational agents in selected tumor cell lines
The current study was undertaken to assess response to LSD1 inhibitors in combination with standard-of-care drugs and investigational agents in solid tumor complex spheroid models as well as in the K-562 leukemia. Complex spheroids include a stromal component modeled by human endothelial cells (HUVEC) and fibroblasts modeled by human mesenchymal stem cells (MSCs). The concentration ranges selected for each drug and investigational agent were based upon clinically achievable concentrations if the clinical Cmax of the agent was known.
Compounds. The drugs and investigational agents used in this study are listed on Table 1. All of the agents used, including staurosporine (NSC755774) and gemcitabine (NSC613327), were obtained from the Developmental Therapeutics Program, NCI. FDA-approved anticancer drugs are available from the NCI at http://dtp.nci.nih.gov/branches/dscb/oncology_drugset_explanation.html. Drugs and investigational agents were >95% pure by proton nuclear magnetic resonance (NMR) and liquid chromatography/mass spectrometry (LC/MS). Stock solutions were prepared at 400x in DMSO, stored at -70 degrees C, and diluted in fresh medium prior to their use. The final concentration of DMSO in cell culture wells never exceeded 0.25% (v/v). The FDA-approved anticancer drug set is available from the Developmental Therapeutics Program at https://dtp.cancer.gov/organization/dscb/obtaining/available_plates.htm. All drugs and investigational agents were tested over a range starting from a high concentration at or near the clinical Cmax and decreasing in half-log increments. If the clinical Cmax for an agent had not been determined, the highest concentration tested was 10 microM.
Cell Lines. The patient-derived cancer cell (PDC) lines: 292921-168-R-J2-PDC, K24384-001-R-PDC, and 521955-158-R2-J5-PDC pancreatic carcinomas, 556581-035-R-J1 ovarian carcinoma, 324938-238-R-J1-PDC, 855422-203-R-J1-PDC and 883617-216-R-J1-PDC urothelial bladder carcinomas, 743489-274-T-PDC renal cell carcinoma, 138582-R-J1 Merkel cell tumor, K60290-347-R-J1 and K57222-313-R-J1-PDC glioblastomas, 653999-131-R-J2-PDC, LG0703-F948-PDC, and 349418-098-R-PDC non-small cell lung carcinomas, 885512-296-R-J2-PDC, 171881-019-R-J1-PDC breast carcinomas and 186277-243-T-J2-PDC and 233499-124-R-J2-PDC colon carcinomas were obtained from the NCI Patient-Derived Models Repository (PDMR, https://pdmr.cancer.gov). The established cell lines NCI/ADR-RES (RRID:CVCL_14520 and OVCAR-5 (RRID:CVCL_1628) ovarian carcinomas, 786-O (RRID:CVCL_1051) and A498 (RRID:CVCL_A498) renal cell carcinoma, NCI-H211 (ATCC, cat. CRL-5824; RRID:CVCL_1529), NCI-H196 (ATCC, cat. CRL-5823, RRID:CVCL_1509), SW 1271 (ATCC, cat. CRL-2177, RRID:CVCL_1716) and NCI-H1876 (ATCC, cat. CRL-5902, RRID:CVCL_1503) small cell lung carcinomas, MDA-MB-231 (RRID:CVCL_0062) and MDA-MB-468 (RRID:CVCL_0419)breast carcinomas (10-12). Pooled donor human umbilical vein endothelial cells (HUVEC, Lonza, cat. CC-2519) and human mesenchymal stem cells (hMSC, Lonza, cat. PT-2501) were purchased from Lonza (Walkersville, MD).
Cell Culture. All cells were maintained in an incubator at 37 degrees C and 5% CO2 with 95% humidity. The PDC lines were cultured according to standard operating procedures established by the NCI PDMR (https://pdmr.cancer.gov). Briefly all PDCs were thawed and cultured in Matrigel-coated flasks prepared with a working solution of 1X Ham's F-12 nutrient mix, without supplementation (Invitrogen, Waltham, MA, cat. 11765054), 100 U/mL penicillin-streptomycin (Invitrogen, cat. 15140122), and 2.5% Matrigel (Corning Inc., Corning, NY, cat. 354248) for the first three passages. […]
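Note: 7 day exposure to compounds.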
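Throughout, for viability, T/C: 100% = DMSO vehicle control viability.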

`CC(C)c1c(-c2ccccc2)nc2c(C#N)c[nH]n2c1=O` + NC1CC1c1ccc(-c2cccc(O)c2)cc1 was tested, and the pIC50 (curve of first compound, second compound 0.1 µM) was < 5.00, the pIC50 (curve of first compound, second compound 0.316 µM) was < 5.00 and the pIC50 (curve of first compound, second compound 1 µM) was < 5.00. The pIC50 (curve of first compound, second compound 3.16 µM) was < 5.00, the pIC50 (curve of first compound, second compound 10 µM) was < 5.00 and the viability, T/C (second compound 0.1 µM, first compound 0.0316 µM) was 114%. The viability, T/C (second compound 0.1 µM, first compound 0.1 µM) was 101%, the viability, T/C (second compound 0.1 µM, first compound 0.316 µM) was 106% and the viability, T/C (second compound 0.1 µM, first compound 1 µM) was 85.4%. The viability, T/C (second compound 0.1 µM, first compound 3.16 µM) was 88.1%, the viability, T/C (second compound 0.1 µM, first compound 10 µM) was 72.5% and the viability, T/C (second compound 0.316 µM, first compound 0.0316 µM) was 95.9%. For the same compound, the viability, T/C (second compound 0.316 µM, first compound 0.1 µM) was 107%, the viability, T/C (second compound 0.316 µM, first compound 0.316 µM) was 104% and the viability, T/C (second compound 0.316 µM, first compound 1 µM) was 100%. For the same compound, the viability, T/C (second compound 0.316 µM, first compound 3.16 µM) was 85.9%, the viability, T/C (second compound 0.316 µM, first compound 10 µM) was 78.5% and the viability, T/C (second compound 1 µM, first compound 0.0316 µM) was 106%. For the same compound, the viability, T/C (second compound 1 µM, first compound 0.1 µM) was 99.8%, the viability, T/C (second compound 1 µM, first compound 0.316 µM) was 93% and the viability, T/C (second compound 1 µM, first compound 1 µM) was 96.2%. It also gave a viability, T/C (second compound 1 µM, first compound 3.16 µM) of 95.4%, a viability, T/C (second compound 1 µM, first compound 10 µM) of 73.7% and a viability, T/C (second compound 3.16 µM, first compound 0.0316 µM) of 101%. The viability, T/C (second compound 3.16 µM, first compound 0.1 µM) was 106%, the viability, T/C (second compound 3.16 µM, first compound 0.316 µM) was 111% and the viability, T/C (second compound 3.16 µM, first compound 1 µM) was 108%. It also gave a viability, T/C (second compound 3.16 µM, first compound 3.16 µM) of 96.9%, a viability, T/C (second compound 3.16 µM, first compound 10 µM) of 80.9% and a viability, T/C (second compound 10 µM, first compound 0.0316 µM) of 88.9%. The viability, T/C (second compound 10 µM, first compound 0.1 µM) was 86%, the viability, T/C (second compound 10 µM, first compound 0.316 µM) was 102% and the viability, T/C (second compound 10 µM, first compound 1 µM) was 97.6%. The viability, T/C (second compound 10 µM, first compound 3.16 µM) was 85% and the viability, T/C (second compound 10 µM, first compound 10 µM) was 74.6%.

`O=C(c1cc(Cc2n[nH]c(=O)c3ccccc23)ccc1F)N1CCN(C(=O)C2CC2)CC1` was tested, and the viability, T/C (compound 0.0316 µM) was 100% and 90.9%, the viability, T/C (compound 0.1 µM) was 102% and 106% and the viability, T/C (compound 0.316 µM) was 105% and 103%. The viability, T/C (compound 1 µM) was 93.5% and 95.7%, the viability, T/C (compound 3.16 µM) was 69.7% and 113% and the viability, T/C (compound 10 µM) was 54.8% and 86.6%. For the same compound, the pIC50 (curve of compound) was < 5.00.
